Source: patent publication US20220168325A1, “METHODS TO PROMOTE CEREBRAL BLOOD FLOW IN THE BRAIN” (THE UNIVERSITY OF VERMONT, priority 2019, published 2022)

Key:
[1] = test system: capillary-to-arteriole electrical signaling; test: Ex vivo CaPA preparation from transgenic mice: arteriolar tone and dilation to capillary 10 mM K+
Kir2.1 channel [2] = molecular target: T1, Kir2.1 channel (Mus musculus, UniProt P35561); test: Patch-clamp Ba2+-sensitive Kir2.1 current in cECs from transgenic mice; type: cell-based, TgNotch3^WT and TgNotch3^R169C mice; parameters: freshly isolated capillary endothelial cells from TgNotch3^WT and TgNotch3^R169C brains; endogenous in cells; host or cells: freshly isolated brain capillary endothelial cells from TgNotch3^WT and TgNotch3^R169C mice (FVB/N background); settings: CADASIL cECs
T1 sequence (P35561 1-428): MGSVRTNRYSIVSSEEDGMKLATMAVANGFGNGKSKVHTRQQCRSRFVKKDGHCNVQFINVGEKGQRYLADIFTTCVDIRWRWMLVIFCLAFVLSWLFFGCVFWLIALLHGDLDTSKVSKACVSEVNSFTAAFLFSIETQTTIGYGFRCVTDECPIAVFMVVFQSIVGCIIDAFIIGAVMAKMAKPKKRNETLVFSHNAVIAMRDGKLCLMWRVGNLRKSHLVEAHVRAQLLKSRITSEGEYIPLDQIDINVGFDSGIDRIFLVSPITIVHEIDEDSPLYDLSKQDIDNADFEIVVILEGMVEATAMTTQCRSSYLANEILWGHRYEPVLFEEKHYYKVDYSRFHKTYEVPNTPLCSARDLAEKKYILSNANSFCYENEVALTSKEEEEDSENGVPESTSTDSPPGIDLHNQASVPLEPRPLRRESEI

functional hyperemia = test: Whisker stimulation-induced functional hyperemia in vivo (laser Doppler flowmetry, somatosensory cortex); parameters: species or system TgNotch3^WT and TgNotch3^R169C mice; settings: exogenous PIP2 (diC16-PIP2 systemically via femoral artery catheter), CADASIL model mice
intracerebral arterioles = test: Luminal diameter of isolated pressurized parenchymal arterioles; parameters: species or system TgNotch3^WT and TgNotch3^R169C mice; settings: bath soluble PIP2 10 μM; TgNotch3^WT and TgNotch3^R169C arterioles
Description: FIGS. 21A and 21B show typical recordings of luminal diameter of pressurized parenchymal arterioles from TgNotch3^WT (control) and TgNotch3^R169C (CADASIL) mice. NS309 and U46619 are used to test the ability of the arteriole to dilate and constrict, respectively. Bath application of soluble PIP2 at 10 μM has little effect on arteriole diameter.

Kir2.1 channel [3] = molecular target: T1, Kir2.1 channel; test: Patch-clamp recording of Kir2.1 currents in freshly isolated brain capillary endothelial cells (cECs); settings: perforated patch
[4] = test system: K+-evoked capillary hyperemia; test: In vivo two-photon imaging of K+-evoked capillary RBC flux through cranial window; parameters: species or system C57BL/6J mouse
[5] = test system: capillary-to-arteriole electrical signaling; test: Ex vivo capillary-parenchymal arteriole (CaPA) preparation: upstream arteriolar dilation to 10 mM K+ on capillaries; parameters: species or system C57BL/6J mouse
From the text: Ex Vivo Capillary-Parenchymal Arteriole Preparation. The capillary-parenchymal arteriole (CaPA) preparation was obtained by dissecting parenchymal arterioles arising from the M1 region of the middle cerebral artery, leaving the attached capillary bed intact, as reported recently (Longden et al, “Capillary K^+-Sensing Initiates Retrograde Hyperpolarization to Increase Local Cerebral Blood Flow,” Nat. Neurosci. 20:717-726 (2017), which is hereby incorporated by reference in its entirety). Precapillary arteriolar segments were cannulated on glass micropipettes on a Living Systems Instrumentation pressure myograph, with one end occluded by a tie. The ends of the capillaries were then sealed by the downward pressure of an overlying glass micropipette. Application of pressure (40 mmHg) to the cannulated parenchymal arteriole segment in this preparation pressurized the entire tree and induced myogenic tone in the parenchymal arteriole segment. With this preparation, 10 mM K^+ was applied onto capillaries by pressure ejection from a glass micropipette (tip diameter, ˜5 μm) attached to a Picospritzer III (Parker) at ˜5 psi for 18 s. Luminal diameter in parenchymal arterioles was acquired in one region of the arteriolar segment at 15 Hz using IonWizard 6.2 edge-detection software (IonOptix). Changes in arteriolar diameter were calculated from the average luminal diameter measured over the last 10 s of stimulation and were normalized to the maximum dilatory responses in 0 mM Ca^2+ bath solution at the end of each experiment.
Capillary Kir2.1 channels sense increases in [K^+]o caused by increased neuronal activity and initiate a hyperpolarizing signal. By virtue of strong electrical coupling between endothelial cells, retrograde hyperpolarization ascends to upstream feeding arterioles to enhance cerebral blood flow to the site of signal initiation (Longden et al, “Capillary K^+-Sensing Initiates Retrograde Hyperpolarization to Increase Local Cerebral Blood Flow,” Nat. Neurosci. 20:717-726 (2017), which is hereby incorporated by reference in its entirety). […] During this lag period, Kir2.1 currents recorded in the perforated-patch configuration declined steadily (τdecay≈12 minutes), but K^+-mediated retrograde dilatory signaling remained intact until Kir2.1 currents reached ˜50% of their maximal amplitude (FIG. 7C).

[6] = bath-applied PGE2 1 μM or carbachol 10 μM

| Compound | Upstream arteriole response to 10 mM K+ on capillaries ([1]; CaPA from endothelial specific Kir2.1^-/- (Kir channel deficient) mice, HB-EGF or soluble PIP2 present) | Arteriolar dilation in response to capillary stimulation with 10 mM K+ ([1]; TgNotch3^R169C CaPA, 1 mM 4-AP, 30 ng/mL HB-EGF bath, or exogenous PIP2 bath) | Kir2-mediated current (Kir2.1 channel [2]; exogenous soluble PIP2 10 μM (diC16-PIP2, 20 minutes pre-incubation)) | Kir current (Kir2.1 channel [2]; intracellular soluble PIP2 via patch pipette (10 μM diC8-PIP2)) | Functional hyperemia in vivo (functional hyperemia) | Arteriole diameter (intracerebral arterioles) | Kir2.1 current decline at X0 (12 minutes) (Kir2.1 channel [3]; carbachol 10 μM) [%] | Time constant of exponential decay of Kir2.1 current (τdecay) (Kir2.1 channel [3]; PGE2 2 μM or carbachol 10 μM applied at t0) [min] | K+-induced increase in capillary RBC flux ([4]; carbachol 0.6 μg/kg intravascular, t=20 minutes after injection, 10 mM K+, saline controls 52±12%) [%] | Baseline capillary RBC flux (before K+ application) ([4]; carbachol 0.6 μg/kg, over 30 minutes) | Lag phase (X0) before inhibition of capillary-mediated arteriolar dilation [5, 6] | Time constant of postplateau exponential decay of K+-induced dilation (τdecay) [5, 6] | K+-induced upstream arteriolar vasodilation ([5]; bath-applied PGE2 1 μM or carbachol 10 μM, 10 mM K+ on capillaries) | Parenchymal arteriolar diameter ([5]; carbachol, FIGS. 8A-8D) |
| --- | --- | --- | --- | --- | --- | --- | --- | --- | --- | --- | --- | --- | --- | --- |
| phosphatidylinositol 4,5-bisphosphate [soluble PIP2] | absence of effect | restored | increased Kir2-mediated current in cECs from CADASIL mice to values observed in control groups | counteracted the reduction in Kir current | restored | little effect |  |  |  |  |  |  |  |  |
| C[N+](C)(C)CCOC(N)=O [carbachol] |  |  |  |  |  |  | ~58 | 8 | 10±6 | did not change | ≈ 12 minutes | ≈ 13 minutes | similarly suppressed | minimally altered parenchymal arteriolar diameter |
